Data reported in ChEMBL document CHEMBL5252612, “A novel selective estrogen receptor degrader induces cell cycle arrest in breast cancer via ERα degradation and the autophagy-lysosome pathway” (Bioorg Med Chem, 2023).
Calls of active or inactive are those of the source. The rule behind the calls is not given here.

How the values were obtained:
[1] = Downregulation of MYC expression in human T47D cells at 10 uM incubated for 12 hrs by RNA-seq analysis; type: functional
LCC2 [2] = assay: Inhibition of colony formation in tamoxifen-resistant human LCC2 cells at 1 uM incubated for 14 days by crystal violet staining based analysis; type: functional, cell-based; details: time 14.0 day
T47D [3] = assay: Induction of cell cycle arrest in human T47D cells assessed as proportion of cells at G2 phase at 5 uM incubated for 24 hrs by flow cytometry (reference value: 24.4%); type: functional
MCF7 [4] = assay: Induction of cell cycle arrest in human MCF7 cells assessed as proportion of cells at G1 phase at 1 uM incubated for 24 hrs by flow cytometry (reference value: 46.3%); type: functional
[5] = Toxicity in BALB/c nude mouse xenografted with human MCF7 cells assessed as liver cell morphological changes at 2 to 4 mg/kg, ip administered every other day by Hematoxylin and eosin staining based analysis; type: organism-based; details: in vivo, dose 2-4 mg/kg
T47D [6] = assay: Induction of cell cycle arrest in human T47D cells assessed as proportion of cells at S phase at 1 uM incubated for 24 hrs by flow cytometry (reference value: 15.3%); type: functional
[7] = target: T1, Estrogen receptor (Homo sapiens) (UniProt P03372); assay: Induction of ER-alpha degradation in human T47D cells assessed as decrease in ER-alpha protein expression in presence of proteasome inhibitor, MG132 by western blot analysis; type: cell-based
T1 sequence (whole entry): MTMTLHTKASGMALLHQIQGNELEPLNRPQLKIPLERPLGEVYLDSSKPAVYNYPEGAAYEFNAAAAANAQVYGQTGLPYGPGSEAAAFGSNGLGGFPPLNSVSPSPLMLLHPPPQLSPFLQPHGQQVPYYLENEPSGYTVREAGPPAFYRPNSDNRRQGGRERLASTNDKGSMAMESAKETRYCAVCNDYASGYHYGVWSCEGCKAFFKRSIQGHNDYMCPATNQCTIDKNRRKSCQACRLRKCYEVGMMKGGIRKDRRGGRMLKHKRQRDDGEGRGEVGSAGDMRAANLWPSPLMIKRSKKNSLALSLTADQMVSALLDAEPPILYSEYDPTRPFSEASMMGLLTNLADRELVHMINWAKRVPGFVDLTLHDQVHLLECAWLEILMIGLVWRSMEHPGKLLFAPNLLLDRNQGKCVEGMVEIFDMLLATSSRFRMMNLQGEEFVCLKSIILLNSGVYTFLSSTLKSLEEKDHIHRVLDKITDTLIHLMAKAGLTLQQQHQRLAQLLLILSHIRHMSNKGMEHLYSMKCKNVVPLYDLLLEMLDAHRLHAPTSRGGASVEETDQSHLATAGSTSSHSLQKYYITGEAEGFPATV

MCF7 [8] = assay: Induction of apoptosis and necrosis in human MCF7 cells assessed as live cells at 20 uM incubated for 48 hrs by AnnexinV-FITC/PI staining based flow cytometry (reference value: 92.97%); type: functional
[9] = Induction of cell cycle arrest in tamoxifen-resistant human LCC2 cells assessed as proportion of cells at S phase at 1 uM by flow cytometry (reference value: 28.4%); type: functional
T47D [10] = assay: Induction of cell cycle arrest in human T47D cells assessed as proportion of cells at G2 phase at 10 uM incubated for 24 hrs by flow cytometry (reference value: 17%); type: functional
T47D [11] = assay: Induction of autophagy in human T47D cells overexpressing ESR1 assessed as increase in autophagosome number by measuring LC3 puncta formation by immunofluorescence assay; type: functional, cell-based
T47D [12] = assay: Induction of autophagy in human T47D cells overexpressing ESR1 assessed as increase in LC3 protein expression by western blot analysis; type: functional, cell-based
T47D [13] = assay: Inhibition of colony formation in human T47D cells at 10 uM incubated for 14 days in presence of autophagy inhibitor, 3-MA by crystal violet staining based analysis; type: functional, cell-based; details: time 14.0 day
T47D [14] = assay: Induction of cell cycle arrest in human T47D cells transfected with empty vector assessed as proportion of cells at G1 phase at 10 uM incubated for 24 hrs by flow cytometry (reference value: 17.1%); type: functional
T47D [15] = assay: Induction of cell cycle arrest in human T47D cells assessed as proportion of cells at G1 phase at 5 uM incubated for 24 hrs by flow cytometry (reference value: 66.6%); type: functional
[16] = Induction of cell cycle arrest in tamoxifen-resistant human LCC2 cells assessed as proportion of cells at S phase at 5 uM by flow cytometry (reference value: 28.4%); type: functional
T47D [17] = assay: Induction of cell cycle arrest in human T47D cells assessed as proportion of cells at G1 phase at 1 uM incubated for 24 hrs by flow cytometry (reference value: 66.6%); type: functional
T47D [18] = assay: Induction of apoptosis and necrosis in human T47D cells assessed as live cells at 20 uM incubated for 48 hrs by AnnexinV-FITC/PI staining based flow cytometry (reference value: 96.26%); type: functional
T47D [19] = assay: Induction of autophagy in human T47D cells assessed as upregulation of LAMP2 protein expression at 10 uM incubated for 24 hrs by western blot analysis; type: functional, cell-based
T47D [20] = assay: Induction of autophagy in human T47D cells assessed as upregulation of CTSD protein expression at 10 uM incubated for 24 hrs by western blot analysis; type: functional, cell-based
MCF7 [21] = assay: Induction of cell cycle arrest in human MCF7 cells assessed as proportion of cells at S phase at 5 uM incubated for 24 hrs by flow cytometry (reference value: 27.6%); type: functional
[22] = Toxicity in BALB/c nude mouse xenografted with human MCF7 cells assessed as kidney cell morphological changes at 2 to 4 mg/kg, ip administered every other day by Hematoxylin and eosin staining based analysis; type: organism-based; details: in vivo, dose 2-4 mg/kg
T47D [23] = assay: Induction of cell cycle arrest in human T47D cells assessed as proportion of cells at G1 phase at 10 uM incubated for 24 hrs in presence of autophagy inhibitor, 3-MA by flow cytometry (reference value: 58.3%); type: functional
T47D [24] = assay: Induction of cell cycle arrest in human T47D cells assessed as proportion of cells at G2 phase at 10 uM incubated for 24 hrs in presence of autophagy inhibitor, 3-MA by flow cytometry (reference value: 18.2%); type: functional
T47D [25] = assay: Anticancer activity against ER-alpha positive human T47D cells assessed as reduction in cell viability at 10 uM measured after 48 hrs by CCK8 assay; type: functional, cell-based
T47D [26] = assay: Induction of cell cycle arrest in human T47D cells assessed as proportion of cells at G1 phase at 10 uM incubated for 24 hrs by flow cytometry (reference value: 52.6%); type: functional
[27] = Induction of cell cycle arrest in tamoxifen-resistant human LCC2 cells assessed as proportion of cells at G1 phase at 1 uM by flow cytometry (reference value: 47.4%); type: functional
LCC2 [28] = assay: Anticancer activity against ER-alpha positive human LCC2 cells assessed as reduction in cell viability at 20 uM measured after 48 hrs by CCK8 assay; type: functional, cell-based
T47D [29] = assay: Downregulation of ER-alpha mRNA expression in human T47D cells by RT-qPCR analysis; type: functional, cell-based
MCF7 [30] = assay: Antitumor activity against human MCF7 cells xenografted in BALB/c nude mouse assessed as reduction in Ki67 expression in tumor at 2 to 4 mg/kg, ip administered every other day by immunohistochemistry; type: functional, organism-based; details: dose 2-4 mg/kg

COc1ccc(N(CC(F)(F)F)S(=O)(=O)C2CC3OC2C(c2ccc(OCCN4CCCC4)cc2)=C3c2ccc(O)cc2)cc1 (stereo not given)
fold change (FC) [1]: -1.037 | inhibition (LCC2 [2]): Active | Activity (T47D [3]): 16.2% | Activity (MCF7 [4]): 63.7% | Activity [5]: Non-Toxic | Activity (T47D [6]): 9.47% | Activity [7]: inactive | Activity (MCF7 [8]): 53.55% | Activity [9]: 19.6% | Activity (T47D [10]): 16.9% | Activity (T47D [11]): Active | Activity (T47D [12]): Active | inhibition (T47D [13]): inactive | Activity (T47D [14]): 36% | Activity (T47D [15]): 76.8% | Activity [16]: 13% | Activity (T47D [17]): 71.1% | Activity (T47D [18]): 78.57% | Activity (T47D [19]): Active | Activity (T47D [20]): Active | Activity (MCF7 [21]): 15% | Activity [22]: Non-Toxic | Activity (T47D [23]): 63.3% | Activity (T47D [24]): 19.3% | Activity (T47D [25]): Active | Activity (T47D [26]): 71.6% | Activity [27]: 63.9% | Activity (LCC2 [28]): Active | inhibition (T47D [29]): Active | Activity (MCF7 [30]): Active
